Measurements: patent publication US20190365843A1, “Antimicrobial Activity of Bioactive Compounds and Their Derivatives” (priority 2018, published 2019)

Tests used:
Candida abicans = test: Agar diffusion growth inhibition zone, Candida abicans; assay type: cell-based, Candida albicans; details: 6 mm = no activity
Experimental: (§1) Among the bacterial agents tested Gram positive and Gram negative bacterial groups represented by Staphylococcus aureus and Enterococcus species and pathogenic members of Enterobacteriaceae, Vibronaceae, Aeromonadaceae, Pseudomonadaceae were tested. Freshly sub-cultured bacterial strains were inoculated into peptone water and incubated for 4 hours at 37° C. and adjusted to a turbidity of 0.5 (Gram Negative Bacilli), 1 (Gram Positive Cocci) and 4 (Pus cells, GNB, & few Budding yeast cells) Mc Farland standards (10^8 CFU/ml) respectively.
(§2) The different bioactive compounds and their derivatives were dissolved and diluted with solvents (DMSO), number of subsequent dilutions was performed to obtain different concentrations of the bioactive compounds and their derivatives. (Working Concentrations).
(§3) Agar well diffusion method is widely used to evaluate the antimicrobial activity of plants or other synthetic products. The suspension (microbial inoculum) was used to inoculate into Muller Hinton Agar Petri plates by lawn culture. Well (diameter 6 mm) were punched in the agar by sterile borer and filled with 50 μl of dissolved extracts. Plates were incubated in incubator at 37° C. for 24 hours and measured the growth inhibition zone diameters in mm compared with that of control (DMSO) showing no growth.
(§4) The bioactive compounds were tested with desired concentrations in 6 mm filter paper discs (Whatman, no. 3) were impregnated with 10 μL of each of the different dilutions. The discs were allowed to remain at room temperature until complete diluent evaporation and kept under refrigeration until ready to be used. 10 μL of diluents used to products were used as control. Tests were performed by Agar disk-diffusion testing method, which is the official method used in many clinical microbiology laboratories for routine antimicrobial susceptibility testing.
(§5) Similar to the procedure used in Agar well diffusion method, the suspension (microbial inoculum) was used to inoculate into Muller Hinton Agar Petri plates by lawn culture. Then, filter paper discs (about 6 mm in diameter), containing the test compound at a desired concentration, were placed on the agar surface. The Petri dishes were incubated under suitable incubation conditions.
(§6) Bioactive compounds showing zone of inhibition beyond the size of 6 mm are considered to be having an anti-microbial activity.

Pleisiomonas sp. = test: Agar diffusion growth inhibition zone, Pleisiomonas sp.; assay type: cell-based, Pleisiomonas species; details: Pleisiomonas sp., 6 mm = no activity
Experimental: as §1, §2, §3, §4, §5, §6

S. aureus = test: Agar diffusion growth inhibition zone, S. aureus; assay type: cell-based, Staphylococcus aureus; details: Staphylococcus aureus, 6 mm = no activity
Experimental: as §1, §2, §3, §4, §5, §6

E. coli ATCC 25922 = test: Agar diffusion growth inhibition zone, E. coli ATCC 25922; assay type: cell-based; details: Escherichia coli, 6 mm = no activity
Experimental: as §1, §2, §3, §4, §5, §6

Shigella sp. = test: Agar diffusion growth inhibition zone, Shigella sp.; assay type: cell-based, Shigella species; details: Shigella
Aeromonas sp. = test: Agar diffusion growth inhibition zone, Aeromonas sp.; assay type: cell-based, Aeromonas species; details: Aeromonas sp., 6 mm = no activity
Experimental: as §1, §2, §3, §4, §5, §6

Vibrio cholera = test: Agar diffusion growth inhibition zone, Vibrio cholera; assay type: cell-based, Vibrio cholerae; details: Vibrio cholerae
Experimental: (§7) Agar well diffusion method is widely used to evaluate the antimicrobial activity of plants or other synthetic products. The suspension (microbial inoculum) was used to inoculate into Muller Hinton Agar Petri plates by lawn culture. Well (diameter 6 mm) were punched in the agar by sterile borer and filled with 50 μl of dissolved extracts. Plates were incubated in incubator at 37° C. for 24 hours and measured the growth inhibition zone diameters in mm compared with that of control (DMSO) showing no growth. The antimicrobial agent diffuses in the agar medium and inhibits the growth of the microbial strain tested (Valgas et al., (2016) Methods for in vitro evaluating antimicrobial activity: A review. Journal of Pharmaceutical Analysis. 6(2):71-9).
(§8) Similar to the procedure used in Agar well diffusion method, the suspension (microbial inoculum) was used to inoculate into Muller Hinton Agar Petri plates by lawn culture. Then, filter paper discs (about 6 mm in diameter), containing the test compound at a desired concentration, were placed on the agar surface. The Petri dishes were incubated under suitable incubation conditions. Generally, antimicrobial agent diffuses into the agar and inhibits germination and growth of the test microorganism and then the diameters of inhibition growth zones are measured (Valgas et al., (2007) Screening methods to determine antibacterial activity of natural products. Brazilian Journal of Microbiology. 38:369-80; Balouiri M et al., (2016) Methods for in vitro evaluating antimicrobial activity: A review. Journal of Pharmaceutical Analysis. 6(2):71-9).

EAEC = test: Agar diffusion growth inhibition zone, EAEC; assay type: cell-based, Enteroaggregative E. coli; details: Escherichia coli, 6 mm = no activity
Experimental: as §1, §2, §3, §4, §5, §6

ETEC = test: Agar diffusion growth inhibition zone, ETEC; assay type: cell-based, Enterotoxigenic E. coli
Experimental: as §7, §8

Enterococcus sp. = test: Agar diffusion growth inhibition zone, Enterococcus sp.; assay type: cell-based, Enterococcus species; details: 6 mm = no activity
Experimental: as §1, §2, §3, §4, §5, §6

Proteus sp. = test: Agar diffusion growth inhibition zone, Proteus sp.; assay type: cell-based, Proteus species; details: Proteus sp.; 150 mg; 6 mm = no activity
Experimental: as §1, §2, §3, §4, §5, §6

Pseudomonas sp. = test: Agar diffusion growth inhibition zone, Pseudomonas sp.; assay type: cell-based, Pseudomonas species; details: Pseudomonas
Salmonella typhimurium = test: Agar diffusion growth inhibition zone, Salmonella typhimurium; assay type: cell-based; details: Salmonella enterica, 6 mm = no activity
Experimental: as §1, §2, §3, §4, §5, §6

Citrobacter sp. = test: Agar diffusion growth inhibition zone, Citrobacter sp.; assay type: cell-based, Citrobacter species; details: 6 mm = no activity
Experimental: as §1, §2, §3, §4, §5, §6

Klebsiella sp. = test: Agar diffusion growth inhibition zone, Klebsiella sp.; assay type: cell-based, Klebsiella species; details: 6 mm = no activity
Experimental: as §1, §2, §3, §4, §5, §6

Work on `COc1cc(/C=C/C(=O)CC(=O)/C=C/c2ccc(OC(C)=O)c(OC)c2)ccc1OC(C)=O` [compound 4, O,O′- Diacetylcurcumin] yielded a zone of inhibition at 100 mg/mL (Candida abicans; 100 mg) of 6 mm, a zone of inhibition at 150 mg/mL (Candida abicans; 150 mg) of 6 mm and a zone of inhibition at 100 mg/mL (Pleisiomonas sp.; 100 mg) of 6 mm. The zone of inhibition at 150 mg/mL (Pleisiomonas sp.; 150 mg) was 6 mm, the zone of inhibition at 100 mg/mL (S. aureus; 100 mg) was 6 mm and the zone of inhibition at 150 mg/mL (S. aureus; 150 mg) was 6 mm. The zone of inhibition at 100 mg/mL (E. coli ATCC 25922; ATCC25922, 100 mg) was 6 mm, the zone of inhibition at 150 mg/mL (E. coli ATCC 25922; ATCC25922, 150 mg) was 6 mm and the zone of inhibition at 100000 µg/disc (Shigella sp.) was 6 mm. For the same molecule, the zone of inhibition at 150000 µg/disc (Shigella sp.) was 6 mm, the zone of inhibition at 100 mg/mL (Aeromonas sp.; 100 mg) was 6 mm and the zone of inhibition at 150 mg/mL (Aeromonas sp.; 150 mg) was 6 mm. It also gave a zone of inhibition at 100000 µg/disc (Vibrio cholera) of 6 mm, a zone of inhibition at 150000 µg/disc (Vibrio cholera) of 6 mm and a zone of inhibition at 100 mg/mL (EAEC; 100 mg) of 6 mm. The zone of inhibition at 150 mg/mL (EAEC; 150 mg) was 6 mm, the “inhibition of growth” value (ETEC; ETEC) was “significantly inhibited the growth” and the zone of inhibition at 100000 µg/disc (ETEC; Escherichia coli) was 9 mm. The zone of inhibition at 150000 µg/disc (ETEC; Escherichia coli) was 9 mm, the zone of inhibition at 100 mg/mL (Enterococcus sp.; 100 mg) was 6 mm and the zone of inhibition at 150 mg/mL (Enterococcus sp.; 150 mg) was 6 mm. The zone of inhibition at 150 mg/mL (Proteus sp.) was 6 mm, the zone of inhibition at 100000 µg/disc (Pseudomonas sp.) was 6 mm and the zone of inhibition at 150000 µg/disc (Pseudomonas sp.) was 6 mm. The zone of inhibition at 100 mg/mL (Salmonella typhimurium; 100 mg) was 6 mm, the zone of inhibition at 150 mg/mL (Salmonella typhimurium; 150 mg) was 6 mm and the zone of inhibition at 100 mg/mL (Citrobacter sp.; 100 mg) was 6 mm. It also gave a zone of inhibition at 150 mg/mL (Citrobacter sp.; 150 mg) of 6 mm, a zone of inhibition at 100 mg/mL (Klebsiella sp.; 100 mg) of 6 mm and a zone of inhibition at 150 mg/mL (Klebsiella sp.; 150 mg) of 6 mm.
